Four compounds from publication PMC7582905, “Effect of Disulfide Cyclization of Ultrashort Cationic Lipopeptides on Antimicrobial Activity and Cytotoxicity” (International Journal of Molecular Sciences, 2020) can be followed below.

≈ marks a conversion by molar mass, not a printed value. Where a SMILES comes first, the peptide text is derived from it. Bridges are numbered along the chain shown (N, C = ends). The star is where a group is joined. Palmitoyl = CCCCCCCCCCCCCCCC(=O)*

Holding throughout (assay type): cell-based
Data set [1] deals with Candida tropicalis PCM 2709-FY. The note with it: PCM 2709-FY, 24 h. The gist of the method: (§1)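 Broth microdilution per CLSI: E. coli at 5 × 10^5 CFU/mL in Mueller–Hinton broth, yeasts at 2 × 10^3 CFU/mL in RPMI-1640 with 2% D-glucose, exposed to lipopeptides at 0.5–256 μg/mL. Incubation at 37 °C, 18 h for bacteria and 24 h for yeasts. MIC read visually as lowest concentration inhibiting noticeable growth; triplicate.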

The test system of data set [2] is Staphylococcus epidermidis ATCC 14990. To be noted: ATCC 14990, 18 h. A digest of the protocol: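 MIC = lowest lipopeptide concentration (range 0.5–256 μg/mL) with no noticeable growth, scored by eye. Bacteria tested in MHB at 5 × 10^5 CFU/mL for 18 h; Candida in RPMI-1640 + 2% D-glucose at 2 × 10^3 CFU/mL for 24 h; both at 37 °C.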
The subject of data set [3] is Candida albicans ATCC 10231. To be noted: ATCC 10231, 24 h. A digest of the protocol: as §1
Data set [4] concerns Staphylococcus aureus ATCC 25923. To be noted: ATCC 25923, 24 h. On the procedure:
(§2) The Staphylococcus aureus ATCC 25923, Staphylococcus epidermidis ATCC 14990, Escherichia coli ATCC 25922, Pseudomonas aeruginosa ATCC 9027, Candida albicans ATCC 10231, Candida glabrata ATCC 15126, Candida lipolytica PCM 2680-FY, and Candida tropicalis PCM 2709-FY strains were acquired from the Polish Collection of Microorganisms (PCM, Polish Academy of Sciences, Wrocław, Poland) and from the American Type Culture Collection (ATCC). All the strains were stored at −80 °C in Roti-Store cryo vials and before the tests were transferred into fresh Mueller–Hinton broth (MHB, Biocorp, Warsaw, Poland) for bacteria or RPMI-1640 (Sigma-Aldrich, Steinheim, Germany) for fungi and incubated for 24 h at 37 °C. Then, the cultures were seeded on Mueller–Hinton agar (BioMaxima, Lublin, Poland) or Sabouraud dextrose agar (SDA, BioMaxima, Lublin, Poland) plates, respectively, and incubated as just mentioned. These agar cultures were used for further microbiological assays. Cell densities for all assays were adjusted spectrophotometrically (Multiskan GO Microplate Spectrophotometer, Thermo Fisher Scientific, Vantaa, Finland) at 600 and 660 nm for bacteria and fungi, respectively.
(§3) The assay was performed to evaluate the effect of the lipopeptides in preventing biofilm formation. The preparation of inoculums was followed by a ca. 500-fold dilution of the 24 h cultures of microorganisms. Briefly, 50 μL of the compounds in the concentration range, diluted in appropriate medium, were prepared on 96-well polystyrene flat-bottom plates. Subsequently, the 50 μL of the bacterial/fungal inoculums were added to reach the same microbial density as that in the MBEC assay. After 24 h of incubation at 37 °C, the wells were rinsed three times with PBS and the fresh media with resazurin (4 g/L) were added. The MBICs were read after 1 h. All experiments were conducted in triplicate.

Data set [5] has as its system Candida tropicalis PCM 2709-FY. The note with it: PCM 2709-FY, 24 h. On the procedure:
as §2, §3
This is another data set of the same source.

The subject of data set [6] is Pseudomonas aeruginosa ATCC 9027. To be noted: ATCC 9027, 24 h. On the procedure:
as §2, §3

In data set [7] the test system is Staphylococcus epidermidis ATCC 14990. The note with it: ATCC 14990, 24 h. On the procedure:
as §2, §3

The subject of data set [8] is Escherichia coli ATCC 25922. To be noted: ATCC 25922, 24 h. On the procedure:
as §2, §3

The subject of data set [9] is Candida lipolytica PCM 2680-FY. The note with it: 24 h. As to the method:
as §2, §3

In data set [10] the test system is Candida albicans ATCC 10231. To be noted: ATCC 10231, 24 h. As to the method: as §2, §3
The source holds these as a separate data set.

In data set [11] the test system is Candida glabrata ATCC 15126. The note with it: ATCC 15126, 24 h. As to the method:
as §2, §3

In data set [12] the test system is human red blood cells (hRBCs). As to the kind of experiment: Hemolysis assay. The note with it: peptide concentration causing 50% hemolysis; 4% (v/v) hRBCs in PBS, 1 h, 37 °C, absorbance 540 nm, triplicate. As to the method: The hemolysis assay was performed by using the method reported previously. Fresh human red blood cells (hRBCs) with anticoagulant (EDTA) were rinsed three times with a PBS by centrifugation at 800× g for 10 min and diluted with PBS. The lipopeptides were serially diluted on a 96-well microtiter polystyrene plate and hRBCs were added up to a final volume of 100 μL. The peptide concentration ranged between 0.5 and 256 μg/mL and the final hRBCs concentration was 4% (v/v). Controls for zero hemolysis (blank) and 100% hemolysis consisted of hRBCs suspended in PBS and 1% of Triton-X 100, respectively. The plate was incubated for 1 h at 37 °C and then centrifuged (800× g, 10 min, 4 °C). Subsequently, the supernatant was […] to new microtiter plates and the absorbance at 540 nm was measured. All experiments were conducted in triplicate. HC50 was calculated using an ic50.tk tool. Protocol of the study received approval from the local Bioethics Committee at the Medical University of Gdańsk (NKBBN/262/2019, approval date: 10 June 2019).

Take `CCCCCCCCCCCCCCCC(=O)N[C@H]1CSSC[C@@H](C(N)=O)NC(=O)[C@H](CCCCN)NC(=O)[C@H](CCCCN)NC(=O)[C@H](CCCCN)NC1=O` [C1, C16-CKKKC-NH2] (Palmitoyl-CKKKC-NH2; disulfide 1-5): in [1], the “MIC C. tropicalis” value was found to be 4 µg/mL (≈ 4.74 µM). Moreover, in data set [2], the “MIC S. epidermidis” value worked out at 4 µg/mL (≈ 4.74 µM). In data set [3], the “MIC C. albicans” value turned out to be 8 µg/mL (≈ 9.48 µM). In addition, in data set [4], the “MBIC S. aureus” value is 16 µg/mL. In addition, the “MBIC C. tropicalis” value in [5] was found to be 32 µg/mL. Besides, the “MBIC P. aeruginosa” value in [6] is 128 µg/mL. The “MBIC S. epidermidis” value in data set [7] was found to be 16 µg/mL. Moreover, in [8], the “MBIC E. coli” value turned out to be 64 µg/mL. Besides, in data set [9], the “MBIC C. lipolytica” value came out at 16 µg/mL. The “MBIC C. albicans” value in data set [10] came out at 32 µg/mL. Further, the “MBIC C. glabrata” value in data set [11] worked out at 32 µg/mL. In addition, the HC50 (usually the concentration that lyses half of the red blood cells) in data set [12] was determined as 43.9 ± 3.5 µg/mL.

As for `CCCCCCCCCCCCCCCC(=O)N[C@H]1CSSC[C@@H](C(N)=O)NC(=O)[C@H](CCCCN)NC(=O)[C@H](CCCCN)NC(=O)[C@H](CCCCN)NC(=O)[C@H](CCCNC(=N)N)NC1=O` [C3, C16-CRKKKC-NH2] (Palmitoyl-CRKKKC-NH2; disulfide 1-6), the “MIC C. tropicalis” value in [1] turned out to be 2 µg/mL (≈ 2 µM). Also, the “MIC S. epidermidis” value in data set [2] was 8 µg/mL (≈ 8 µM). Moreover, in data set [3], the “MIC C. albicans” value was 2 µg/mL (≈ 2 µM). In addition, the “MBIC S. aureus” value in data set [4] stood at 16 µg/mL. In addition, the “MBIC C. tropicalis” value in data set [5] was found to be 4 µg/mL. In addition, in data set [6], the “MBIC P. aeruginosa” value was 64 µg/mL. The “MBIC S. epidermidis” value in [7] was found to be 8 µg/mL. For the same compound, the “MBIC E. coli” value in data set [8] came out at 64 µg/mL. The “MBIC C. lipolytica” value in data set [9] was 2 µg/mL. Also, the “MBIC C. albicans” value in data set [10] is 8 µg/mL. Further, in [11], the “MBIC C. glabrata” value worked out at 8 µg/mL. Also, in data set [12], the concentration for 50% haemolysis (HC50) was 66.5 ± 14.8 µg/mL.

Consider `CCCCCCCCCCCCCCCC(=O)N[C@@H](CCCCN)C(=O)N[C@@H](CCCCN)C(=O)N[C@@H](CCCNC(=N)N)C(=O)N[C@@H](CCCCN)C(N)=O` [L5, C16-KKRK-NH2] (Palmitoyl-KKRK-NH2), for which the “MIC C. tropicalis” value in data set [1] amounted to 8 µg/mL (≈ 10 µM). The “MIC S. epidermidis” value in data set [2] worked out at 8 µg/mL (≈ 10 µM). The “MIC C. albicans” value in data set [3] worked out at 32 µg/mL (≈ 40.2 µM). The “MBIC S. aureus” value in data set [4] turned out to be 32 µg/mL. Besides, in data set [5], the “MBIC C. tropicalis” value was determined as 16 µg/mL. For the same compound, the “MBIC P. aeruginosa” value in data set [6] was determined as 64 µg/mL. The “MBIC S. epidermidis” value in [7] was determined as 16 µg/mL. For the same compound, the “MBIC E. coli” value in data set [8] was 32 µg/mL. Also, the “MBIC C. lipolytica” value in data set [9] came out at 32 µg/mL. Also, the “MBIC C. albicans” value in [10] was 64 µg/mL. For the same compound, the “MBIC C. glabrata” value in data set [11] is 128 µg/mL. For the same compound, the HC50 in data set [12] is 96.7 ± 1.4 µg/mL.

On to `CCCCCCCCCCCCCCCC(=O)N[C@H]1CSSC[C@@H](C(N)=O)NC(=O)[C@H](CCCCN)NC(=O)[C@H](CCCNC(=N)N)NC(=O)[C@H](CCCCN)NC(=O)[C@H](CCCCN)NC1=O` [C5, C16-CKKRKC-NH2] (Palmitoyl-CKKRKC-NH2; disulfide 1-6), for which the “MIC C. tropicalis” value in data set [1] came out at 4 µg/mL (≈ 4 µM). For the same compound, the “MIC S. epidermidis” value in [2] is 4 µg/mL (≈ 4 µM). For the same compound, the “MIC C. albicans” value in [3] turned out to be 16 µg/mL (≈ 16 µM). Besides, the “MBIC S. aureus” value in [4] is 32 µg/mL. Also, the “MBIC C. tropicalis” value in data set [5] came to 8 µg/mL. Moreover, in data set [6], the “MBIC P. aeruginosa” value was 64 µg/mL. In addition, the “MBIC S. epidermidis” value in [7] was determined as 16 µg/mL. The “MBIC E. coli” value in data set [8] is 32 µg/mL. Besides, the “MBIC C. lipolytica” value in data set [9] came to 8 µg/mL. For the same compound, the “MBIC C. albicans” value in data set [10] is 16 µg/mL. Besides, the “MBIC C. glabrata” value in [11] came out at 16 µg/mL. In data set [12], this compound gave a 50% haemolytic concentration (HC50) of 97.0 ± 15.4 µg/mL.
